# From US20090136461A1, “Neuronal differentiation method of adult stem cells using small molecules” (priority 2007, published 2009)
# How the values were obtained:
# Assay in all cases: Neuronal differentiation, inverted microscope morphology
# Assay type in all cases: cell-based, Fischer rats
# [1] = test system: adipose-derived stem cells; settings: 10 μM small molecules; FIG. 3C, FIG. 4
# Procedure: (§1) Bone marrow-derived mesenchymal stem cells subcultured for 5 generations were distributed on a well plate. One day later, the cells were treated with DMEM containing 20% FBS and 10 ng/mL b-FGF for a day, so that the cells could proliferate sufficiently. In order to induce differentiation into nerve cells, the cells were treated with differentiation medium containing the small molecules listed in Table 1. The small molecules were used after being dissolved in DMSO (Sigma, USA). The concentration of DMSO was less than 2% of the entire culture medium, and was diluted so that the small molecules were included with a concentration in the range from 1 μM to 100 μM. As negative control, DMEM containing 10% FBS and 1% penicillin-streptomycin was used. And, retinoic acid as positive control, which is a well-known inducer of differentiation into nerve cells, was used after being diluted to 2 μM in DMEM. Differentiation of muscle-derived stem cells and adipose-derived stem cells into nerve cells was induced similarly as in the bone marrow-derived stem cells.
# [2] = test system: muscle-derived stem cells; settings: 10 μM small molecules; FIG. 3B
# Procedure: as §1
# [3] = test system: bone marrow-derived mesenchymal stem cells; settings: 10 μM small molecules; FIG. 3A
# Procedure: as §1
Structure (SMILES),differentiation (microscopic images) [1],differentiation (inverted microscopic images) [2],differentiation (inverted microscopic images) [3]
C/C(=C/CCCCC(=O)NO)C(=O)NC1Cc2ccccc2C1 [AAHA-1],differentiated,,
CC(CCCCC(C)(C)C(=O)NO)C(=O)Nc1ccccc1 (centres unmarked) [AAHA-2],differentiated,,
O=C(CCc1ccc(C(=O)NO)cc1)Nc1cccc(OCc2ccccc2)c1 [BHA-1],differentiated,differentiated,differentiated
O=C(Nc1ccccc1)/C(=C/c1ccc(C(=O)NO)cc1)COc1ccc2oc3ccccc3c2c1 [BHA-2],differentiated,,
O=C(NO)c1ccc(/C=C(/CNc2ccc(-c3ccccc3)cc2)COc2cccc3ccccc23)cc1 [BHA-3],differentiated,,
COc1ccc(NC(=O)/C(=C/c2ccc(C(=O)NO)cc2)COc2cccc3ccccc23)cn1 [BHA-4],differentiated,,
O=C(NO)c1ccc2c(c1)NC(CCCc1ccccc1)C(=O)N2 (centres unmarked) [QHA-2],differentiated,differentiated,differentiated
